The target of one assay is T1, androgen receptor (Homo sapiens, UniProt P10275).
T1 sequence (P10275 1-920 T878A): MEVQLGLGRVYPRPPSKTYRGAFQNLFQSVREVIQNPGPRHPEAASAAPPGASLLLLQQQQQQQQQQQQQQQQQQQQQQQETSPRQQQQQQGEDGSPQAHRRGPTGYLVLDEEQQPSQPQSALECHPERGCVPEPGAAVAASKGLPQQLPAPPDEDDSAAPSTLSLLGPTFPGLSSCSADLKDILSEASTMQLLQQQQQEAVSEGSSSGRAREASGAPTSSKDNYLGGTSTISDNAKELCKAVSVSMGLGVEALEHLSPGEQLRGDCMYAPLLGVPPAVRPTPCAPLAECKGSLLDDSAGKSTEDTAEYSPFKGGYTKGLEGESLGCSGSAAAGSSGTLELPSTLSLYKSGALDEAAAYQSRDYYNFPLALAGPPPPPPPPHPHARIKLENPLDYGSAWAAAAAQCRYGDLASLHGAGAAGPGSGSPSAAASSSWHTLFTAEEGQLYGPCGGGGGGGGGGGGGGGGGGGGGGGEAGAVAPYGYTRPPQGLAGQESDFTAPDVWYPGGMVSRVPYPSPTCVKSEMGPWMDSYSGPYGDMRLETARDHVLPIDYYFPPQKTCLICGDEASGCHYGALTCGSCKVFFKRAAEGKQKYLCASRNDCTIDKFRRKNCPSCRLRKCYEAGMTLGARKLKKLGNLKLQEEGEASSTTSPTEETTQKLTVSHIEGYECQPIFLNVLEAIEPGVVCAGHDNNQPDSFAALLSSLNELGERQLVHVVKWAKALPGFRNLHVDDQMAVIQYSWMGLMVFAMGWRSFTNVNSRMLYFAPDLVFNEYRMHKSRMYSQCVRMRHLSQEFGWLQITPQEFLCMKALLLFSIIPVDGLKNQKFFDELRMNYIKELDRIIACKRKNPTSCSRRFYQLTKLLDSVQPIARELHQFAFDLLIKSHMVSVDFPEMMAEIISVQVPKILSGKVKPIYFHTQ
Description: Assay for binding affinity to androgen receptor ([3H]methyltrienolone radioligand, cell cytosol). To be noted: binding to the androgen receptor, Table 3. How it is done: Fractions of cell cytosol ([…]) were incubated for 24 hr at 4° C. with 1 nM [^3H]methyltrienolone in the absence or presence of the test compound in a buffer containing 25 mM Hepes-Tris (pH 7.4), 1 mM EDTA, 10 mM Na2MoO4, 2 mM DTT, 5 μM triamcinolone acetonide, and 10% glycerol. Nonspecific binding was determined in the presence of […] testosterone. Following incubation, the samples were filtered rapidly under vacuum through glass fiber filters (GF/B, Packard) presoaked with 0.3% PEI and rinsed several times with ice-cold 50 mM Tris-HCl using a 96-sample cell harvester (Unifilter, Packard). The filters were dried then counted for radioactivity in a scintillation counter (Topcount, Packard) using a scintillation cocktail (Microscint 0, Packard). The results are expressed as a percent inhibition of the control radioligand specific binding. The standard reference compound is testosterone, which is tested in each experiment at several concentrations to obtain a competition curve from which its IC50 is calculated.

Assay [1] relates to T-Rex 293 cell line SC3 cells having increased expression of androgen receptor protein due to exposure to doxycycline. The assay is described as follows: Cellular growth inhibition assay, T-Rex 293 SC3 cells with doxycycline (CellTiter-Glo, 72 hours). Format: cell-based. The note with it: 72 h, T-Rex 293 SC3 cells with increased androgen receptor expression due to doxycycline (10 ng/mL). The procedure, abridged:
(§1)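 Doxycycline (10 ng/mL) was either included or omitted to toggle wild-type androgen receptor expression in SC3 cells, a T-Rex 293 clone, grown in stripped-serum, phenol red-free medium. After 72 hours with compound, viable cells were quantified by CellTiter-Glo 2.0.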
In general terms: Cellular ATP, detected with luciferase, serves as a proxy for viable cell number.

Assay [2] relates to T-Rex 293 cell line SC3 cells lacking increased expression of androgen receptor protein. Description: Cellular growth inhibition assay, T-Rex 293 SC3 cells without doxycycline (CellTiter-Glo, 72 hours). To be noted: 72 h, T-Rex 293 cell line SC3 cells not exposed to doxycycline (lacking increased androgen receptor expression). The assay is classed as cell-based. The procedure, abridged: as §1

Consider `Cc1sc2c(c1C)C(c1ccc(Cl)cc1)=N[C@@H](CC(=O)NCCOC1CCN(c3ccc(C(=O)N[C@H]4CC[C@H](Oc5ccc(C#N)c(Cl)c5)CC4)nn3)CC1)c1nnc(C)n1-2` [I-1, N-[4-(3-chloro-4-cyano-phenoxy)cyclohexyl]-6-[4-[2-[[2-[(9S)-7-(4-chlorophenyl)-4,5,13-trimethyl-3-thia-1,8,11,12-tetrazatricyclo[8.3.0.0^2,6]trideca-2(6),4,7,10,12-pentaen-9-yl]acetyl]amino]ethoxy]-1-piperidyl]pyridazine-3-carboxamide], for which the equilibrium dissociation constant (Kd) (commonly the equilibrium constant for the complex coming apart) at androgen receptor is less than 50 nM. Also, the GI50 in assay [1] and in assay [2] was 500 to 1500 nM throughout.
For the molecule `Cc1sc2c(c1C)C(c1ccc(Cl)cc1)=N[C@@H](CC(=O)NCCOCCOCCOC1CCN(c3ccc(C(=O)N[C@H]4CC[C@H](Oc5ccc(C#N)c(Cl)c5)CC4)nn3)CC1)c1nnc(C)n1-2` [I-2, N-[4-(3-chloro-4-cyano-phenoxy)cyclohexyl]-6-[4-[2-[2-[2-[[2-[(9S)-7-(4-chlorophenyl)-4,5,13-trimethyl-3-thia-1,8,11,12-tetrazatricyclo[8.3.0.0^2,6]trideca-2(6),4,7,10,12-pentaen-9-yl]acetyl]amino]ethoxy]ethoxy]ethoxy]-1-piperidyl]pyridazine-3-carboxamide], the Kd on androgen receptor was less than 50 nM. Moreover, the GI50 (as a rule, the concentration that inhibits growth by half) in assay [1] was less than 500 nM; in assay [2], 500 to 1500 nM.
The matching figures for `CCNC(=O)C[C@@H]1N=C(c2ccc(OCCOC3CCN(c4ccc(C(=O)N[C@H]5CC[C@H](Oc6ccc(C#N)c(Cl)c6)CC5)nn4)CC3)cc2)c2c(sc(C)c2C)-n2c(C)nnc21` [I-8]: less than 50 nM, less than 500 nM and less than 500 nM.
Consider `CCNC(=O)C[C@@H]1N=C(c2ccc(OCCOCCOC3CCN(c4ccc(C(=O)N[C@H]5CC[C@H](Oc6ccc(C#N)c(Cl)c6)CC5)nn4)CC3)cc2)c2c(sc(C)c2C)-n2c(C)nnc21` [I-10], for which the Kd on androgen receptor is less than 50 nM. The GI50 in assay [1] is less than 500 nM; in assay [2] it was 500 to 1500 nM.
Take `CCNC(=O)C[C@@H]1N=C(c2ccc(CCCOC3CCN(c4ccc(C(=O)N[C@H]5CC[C@H](Oc6ccc(C#N)c(Cl)c6)CC5)nn4)CC3)cc2)c2c(sc(C)c2C)-n2c(C)nnc21` [I-17]: the GI50 in assay [1] and in assay [2] was less than 500 nM throughout.
For `CCNC(=O)C[C@@H]1N=C(c2ccc(CC3CCN(c4ccc(C(=O)N[C@H]5CC[C@H](Oc6ccc(C#N)c(Cl)c6)CC5)nn4)CC3)cc2)c2c(sc(C)c2C)-n2c(C)nnc21` [I-20], the equilibrium dissociation constant (Kd) on androgen receptor is less than 50 nM. In addition, the GI50 in assay [1] and in assay [2] was less than 500 nM each time.
Take `CCNC(=O)C[C@@H]1N=C(c2ccc(N3CC4(C3)CN(c3ccc(C(=O)N[C@H]5CC[C@H](Oc6ccc(C#N)c(Cl)c6)CC5)nn3)C4)cc2)c2c(sc(C)c2C)-n2c(C)nnc21` [I-24]: the Kd at androgen receptor was less than 50 nM. Also, the 50% growth inhibitory concentration (GI50) in assay [1] and in assay [2] was 500 to 1500 nM in each case.
`CCNC(=O)C[C@@H]1N=C(c2ccc(OCC3CN(c4ccc(C(=O)N[C@H]5CC[C@H](Oc6ccc(C#N)c(Cl)c6)CC5)nn4)C3)cc2)c2c(sc(C)c2C)-n2c(C)nnc21` [I-29] gave a Kd at androgen receptor of less than 50 nM. For the same molecule, the concentration for 50% growth inhibition (GI50) is less than 500 nM in assay [1] and 500 to 1500 nM in assay [2].
For the molecule `CCNC(=O)C[C@@H]1N=C(c2ccc(N3CCC(OC4CCN(c5ccc(C(=O)N[C@H]6CC[C@H](Oc7ccc(C#N)c(Cl)c7)CC6)nn5)CC4)CC3)cc2)c2c(sc(C)c2C)-n2c(C)nnc21` [I-44], the Kd at androgen receptor is less than 50 nM. Besides, the 50% growth inhibitory concentration (GI50) in assay [1] was less than 500 nM; in assay [2], 500 to 1500 nM.
As to `CCNC(=O)C[C@@H]1N=C(c2ccc(OCCCN(C)c3ccc(C(=O)N[C@H]4CC[C@H](Oc5ccc(C#N)c(Cl)c5)CC4)nn3)cc2)c2c(sc(C)c2C)-n2c(C)nnc21` [I-48], at androgen receptor, the dissociation constant Kd was less than 50 nM. For the same molecule, the GI50 is less than 500 nM in assay [1] and 500 to 1500 nM in assay [2].

(Values after patent US20260109707A1, “HETEROBIFUNCTIONAL COMPOUNDS AND METHODS OF TREATING DISEASE” (Halda Therapeutics OpCo. Inc., priority 2022, published 2026).)
